SMILES strings stand for the structures.

The target of this test is human LPA1 receptor (Homo sapiens (Human), UniProt Q92633). The test is described as follows: Beta-arrestin recruitment assay to determine IC50 values for human LPAR1. The conditions noted are these: antagonist mode, Tango EDG2-bla U2OS cells, LPA 18:1 500 nM final. The format is cell-based. In short, it runs like this: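 Antagonist IC50 = concentration giving 50% inhibition of maximal LPA response. Read-out is beta-lactamase reporter activity after arrestin-protease recruitment in U2OS cells bearing LPA1-TEV-Gal4-VP16 construct; cells pre-incubated 20 h, 37 °C, 5% CO2.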
Chain of human LPA1 receptor (Q92633 whole entry, the tested form may be a part): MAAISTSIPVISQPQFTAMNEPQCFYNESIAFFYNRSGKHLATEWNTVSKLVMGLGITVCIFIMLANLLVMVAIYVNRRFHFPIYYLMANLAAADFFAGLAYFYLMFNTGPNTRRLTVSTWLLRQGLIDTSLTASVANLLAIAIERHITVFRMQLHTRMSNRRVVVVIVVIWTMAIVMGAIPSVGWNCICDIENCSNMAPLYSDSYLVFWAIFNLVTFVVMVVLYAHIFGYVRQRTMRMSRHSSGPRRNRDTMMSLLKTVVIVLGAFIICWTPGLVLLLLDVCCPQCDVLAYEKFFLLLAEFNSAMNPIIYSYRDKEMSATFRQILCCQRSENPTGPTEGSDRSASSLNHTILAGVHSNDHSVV
On the technique in general: Recruitment of arrestin is a read-out of receptor activation apart from second messengers.
As usually defined, the IC50 is the point on the concentration scale where inhibition reaches its midpoint. As for `Cc1ccc(NC(=O)C2(c3ccccc3C3CCCC3)CNC2)c(OC(F)F)n1` [Ex 25, 3-(2-cyclopentylphenyl)-N-(2-(difluoromethoxy)-6-methylpyridin-3-yl)azetidine-3-carboxamide], the IC50 came out at 8.6 nM. The figure for `Cc1ccc(NC(=O)C2(c3ccccc3C3=CCCC3)CNC2)c(OC(F)F)n1` [Ex 26, 3-(2-(cyclopent-1-en-1-yl)phenyl)-N-(2-(difluoromethoxy)-6-methylpyridin-3-yl)azetidine-3-carboxamide] is 235 nM. As to `Cc1ccc(NC(=O)C2(c3ccccc3C3CCCCC3)CNC2)c(OC(F)F)n1` [Ex 27, 3-(2-cyclohexylphenyl)-N-(2-(difluoromethoxy)-6-methylpyridin-3-yl)azetidine-3-carboxamide], 13 nM corresponded to half-maximal inhibition (IC50).

The compound `Cc1ccc(NC(=O)C2(c3ccccc3C3CCOCC3)CNC2)c(OC(F)F)n1` [Ex 28, N-(2-(difluoromethoxy)-6-methylpyridin-3-yl)-3-(2-(tetrahydro-2H-pyran-4-yl)phenyl)azetidine-3-carboxamide] came in with a half-inhibitory concentration (IC50) of 23 nM. This IC50 is about 1.8-fold higher than that of the compound before. To `CCCc1ccccc1C1(C(=O)Nc2ccc(C)nc2OC(F)F)CNC1` [Ex 29, N-(2-(difluoromethoxy)-6-methylpyridin-3-yl)-3-(2-propylphenyl)azetidine-3-carboxamide] belongs 420 nM; to `Cc1ccc(NC(=O)C2(c3ccccc3C3CCOCC3)CN(S(N)(=O)=O)C2)c(OC(F)F)n1` [Ex 30, N-(2-(difluoromethoxy)-6-methylpyridin-3-yl)-1-sulfamoyl-3-(2-(tetrahydro-2H-pyran-4-yl)phenyl)azetidine-3-carboxamide], 33 nM; to `Cc1ccc(NC(=O)C2(c3ccccc3C3CC3)CN(C(=O)CC(C)(C)C(=O)O)C2)c(OC(F)F)n1` [Ex 31-1, 4-(3-(2-cyclopropylphenyl)-3-((2-(difluoromethoxy)-6-methylpyridin-3-yl)carbamoyl)azetidin-1-yl)-2,2-dimethyl-4-oxobutanoic acid], 19 nM. The figure for `Cc1ccc(NC(=O)C2(c3ccccc3C3CCC3)CN(C(=O)CC(C)(C)C(=O)O)C2)c(OC(F)F)n1` [Ex 31-2, 4-(3-(2-cyclobutylphenyl)-3-((2-(difluoromethoxy)-6-methylpyridin-3-yl)carbamoyl)azetidin-1-yl)-2,2-dimethyl-4-oxobutanoic acid] is 6 nM; for `Cc1ccc(NC(=O)C2(c3ccccc3C3CCCC3)CN(C(=O)CC(C)(C)C(=O)O)C2)c(OC(F)F)n1` [Ex 31-3, 4-(3-(2-cyclopentylphenyl)-3-((2-(difluoromethoxy)-6-methylpyridin-3-yl)carbamoyl)azetidin-1-yl)-2,2-dimethyl-4-oxobutanoic acid] it is 5 nM. In the case of `Cc1ccc(NC(=O)C2(c3ccccc3C3=CCCC3)CN(C(=O)CC(C)(C)C(=O)O)C2)c(OC(F)F)n1` [Ex 31-4, 4-(3-(2-(cyclopent-1-en-1-yl)phenyl)-3-((2-(difluoromethoxy)-6-methylpyridin-3-yl)carbamoyl)azetidin-1-yl)-2,2-dimethyl-4-oxobutanoic acid], the IC50 was 89 nM. The figure for `Cc1ccc(NC(=O)C2(c3ccccc3C3CCCCC3)CN(C(=O)CC(C)(C)C(=O)O)C2)c(OC(F)F)n1` [Ex 31-5, 4-(3-(2-cyclohexylphenyl)-3-((2-(difluoromethoxy)-6-methylpyridin-3-yl)carbamoyl)azetidin-1-yl)-2,2-dimethyl-4-oxobutanoic acid] is 14 nM; for `Cc1ccc(NC(=O)C2(c3ccccc3C3CCOCC3)CN(C(=O)CC(C)(C)C(=O)O)C2)c(OC(F)F)n1` [Ex 31-6, 4-(3-((2-(difluoromethoxy)-6-methylpyridin-3-yl)carbamoyl)-3-(2-(tetrahydro-2H-pyran-4-yl)phenyl)azetidin-1-yl)-2,2-dimethyl-4-oxobutanoic acid] it is 185 nM. As for `CCCc1ccccc1C1(C(=O)Nc2ccc(C)nc2OC(F)F)CN(C(=O)CC(C)(C)C(=O)O)C1` [Ex 31-7, 4-(3-((2-(difluoromethoxy)-6-methylpyridin-3-yl)carbamoyl)-3-(2-propylphenyl)azetidin-1-yl)-2,2-dimethyl-4-oxobutanoic acid], the IC50 turned out to be 8 nM. This IC50 lies about 23-fold lower than the previous one.

Consider `Cc1ccc(NC(=O)C2(c3ccccc3C3CCOCC3)CN(c3nc(C(=O)O)co3)C2)c(OC(F)F)n1` [Ex 32, 2-(3-((2-(difluoromethoxy)-6-methylpyridin-3-yl)carbamoyl)-3-(2-(tetrahydro-2H-pyran-4-yl)phenyl)azetidin-1-yl)oxazole-4-carboxylic acid], for which the IC50 amounted to 447 nM. To `Cc1ccc(NC(=O)C2(c3c(C)cccc3C(C)C)CNC2)c(OC(F)F)n1` [Ex 33, N-(2-(difluoromethoxy)-6-methylpyridin-3-yl)-3-(2-isopropyl-6-methylphenyl)azetidine-3-carboxamide] belongs 33 nM; to `Cc1ccc(C(C)C)c(C2(C(=O)Nc3ccc(C)nc3OC(F)F)CNC2)c1` [Ex 34, N-(2-(difluoromethoxy)-6-methylpyridin-3-yl)-3-(2-isopropyl-5-methylphenyl)azetidine-3-carboxamide], 142 nM. The figure for `Cc1ccc(C2(C(=O)Nc3ccc(C)nc3OC(F)F)CNC2)c(C(C)C)c1` [Ex 35, N-(2-(difluoromethoxy)-6-methylpyridin-3-yl)-3-(2-isopropyl-4-methylphenyl)azetidine-3-carboxamide] is 75 nM; for `Cc1ccc(NC(=O)C2(c3c(F)cccc3C(C)C)CNC2)c(OC(F)F)n1` [Ex 36, N-(2-(difluoromethoxy)-6-methylpyridin-3-yl)-3-(2-fluoro-6-isopropylphenyl)azetidine-3-carboxamide] it is 8 nM; for `Cc1ccc(NC(=O)C2(c3cc(F)ccc3C(C)C)CNC2)c(OC(F)F)n1` [Ex 37, N-(2-(difluoromethoxy)-6-methylpyridin-3-yl)-3-(5-fluoro-2-isopropylphenyl)azetidine-3-carboxamide] it is 112 nM. As for `COc1ccc(C(C)C)c(C2(C(=O)Nc3ccc(C)nc3OC(F)F)CNC2)c1` [Ex 38, N-(2-(difluoromethoxy)-6-methylpyridin-3-yl)-3-(2-isopropyl-5-methoxyphenyl)azetidine-3-carboxamide], the IC50 came to 287 nM. To `Cc1ccc(NC(=O)C2(c3c(C)cccc3C(C)C)CN(C(=O)CC(C)(C)C(=O)O)C2)c(OC(F)F)n1` [Ex 39-1, 4-(3-((2-(difluoromethoxy)-6-methylpyridin-3-yl)carbamoyl)-3-(2-isopropyl-6-methylphenyl)azetidin-1-yl)-2,2-dimethyl-4-oxobutanoic acid] belongs 51 nM; to `Cc1ccc(C(C)C)c(C2(C(=O)Nc3ccc(C)nc3OC(F)F)CN(C(=O)CC(C)(C)C(=O)O)C2)c1` [Ex 39-2, 4-(3-((2-(difluoromethoxy)-6-methylpyridin-3-yl)carbamoyl)-3-(2-isopropyl-5-methylphenyl)azetidin-1-yl)-2,2-dimethyl-4-oxobutanoic acid], 15 nM; to `Cc1ccc(C2(C(=O)Nc3ccc(C)nc3OC(F)F)CN(C(=O)CC(C)(C)C(=O)O)C2)c(C(C)C)c1` [Ex 39-3, 4-(3-((2-(difluoromethoxy)-6-methylpyridin-3-yl)carbamoyl)-3-(2-isopropyl-4-methylphenyl)azetidin-1-yl)-2,2-dimethyl-4-oxobutanoic acid], 40 nM. The figure for `Cc1ccc(NC(=O)C2(c3c(F)cccc3C(C)C)CN(C(=O)CC(C)(C)C(=O)O)C2)c(OC(F)F)n1` [Ex 39-4, 4-(3-((2-(difluoromethoxy)-6-methylpyridin-3-yl)carbamoyl)-3-(2-fluoro-6-isopropylphenyl)azetidin-1-yl)-2,2-dimethyl-4-oxobutanoic acid] is 5 nM. The figure for `Cc1ccc(NC(=O)C2(c3cc(F)ccc3C(C)C)CN(C(=O)CC(C)(C)C(=O)O)C2)c(OC(F)F)n1` [Ex 39-5, 4-(3-((2-(difluoromethoxy)-6-methylpyridin-3-yl)carbamoyl)-3-(5-fluoro-2-isopropylphenyl)azetidin-1-yl)-2,2-dimethyl-4-oxobutanoic acid] is 10 nM. For `COc1ccc(C(C)C)c(C2(C(=O)Nc3ccc(C)nc3OC(F)F)CN(C(=O)CC(C)(C)C(=O)O)C2)c1` [Ex 39-6, 4-(3-((2-(difluoromethoxy)-6-methylpyridin-3-yl)carbamoyl)-3-(2-isopropyl-5-methoxyphenyl)azetidin-1-yl)-2,2-dimethyl-4-oxobutanoic acid], the IC50 is 56 nM.

As for `Cc1ccc(NC(=O)C2(c3ccccc3C(C)C)CN(CC3CCC(C(=O)O)CC3)C2)c(OC(F)F)n1` (stereo not drawn) [Ex 41, 4-((3-((2-(difluoromethoxy)-6-methylpyridin-3-yl)carbamoyl)-3-(2-isopropylphenyl)azetidin-1-yl)methyl)cyclohexane-1-carboxylic acid], the IC50 was 96 nM. The figure for `CCCN(CC(=O)O)CC(=O)N1CC(C(=O)Nc2ccc(C)nc2OC(F)F)(c2ccccc2C(C)C)C1` [Ex 42, N-(2-(3-((2-(difluoromethoxy)-6-methylpyridin-3-yl)carbamoyl)-3-(2-isopropylphenyl)azetidin-1-yl)-2-oxoethyl)-N-propylglycine] is 7 nM; for `Cc1ccc(NC(=O)C2(c3ccccc3C(C)C)CN(C(=O)CN(CC(=O)O)C3CC3)C2)c(OC(F)F)n1` [Ex 43, N-cyclopropyl-N-(2-(3-((2-(difluoromethoxy)-6-methylpyridin-3-yl)carbamoyl)-3-(2-isopropylphenyl)azetidin-1-yl)-2-oxoethyl)glycine] it is 14 nM.

Consider `Cc1ccc(NC(=O)C2(c3ccccc3C(C)C)CN(C(=O)CNCCC(=O)O)C2)c(OC(F)F)n1` [Ex 44, 3-((2-(3-((2-(difluoromethoxy)-6-methylpyridin-3-yl)carbamoyl)-3-(2-isopropylphenyl)azetidin-1-yl)-2-oxoethyl)amino)propanoic acid], for which the IC50 was determined as 155 nM.

For the origin of these results see patent US12344597B2, “Alkoxy-substituted pyridinyl derivatives as LPA1 receptor antagonists and their use in the treatment of fibrosis” (IDORSIA PHARMACEUTICALS LTD, priority 2018, dated 2025).
